{"source": "patent US10456343B2", "about": "“Microemulsion compositions comprising polydatin and method of use” (L'OREAL, priority 2017, dated 2019)", "assay": "Solubility of polydatin in the microemulsion compositions", "format": "physicochemical", "settings": "solubilized in microemulsion", "text": "The inventors of the instant disclosure discovered that the incorporation of polydatin into the microemulsion compositions disclosed herein results in a variety of surprising and unexpected results. […] A higher amount of solubilized polydatin is particularly beneficial in cosmetic compositions for application to the skin because it allows for increased transdermal delivery. The inventors also unexpectedly discovered that polydatin acts as a “clarifying agent,” i.e., it improves or enhances the transparency (clarity) of microemulsion compositions. […] Both formulations include baicalin. […] Thus, in addition to polydatin, the microemulsion composition of the instant disclosure are effective for incorporating baicalin into cosmetic and/or pharmaceutical compositions.", "data": [{"smiles": "OC[C@H]1O[C@@H](Oc2cc(O)cc(/C=C/c3ccc(O)cc3)c2)[C@H](O)[C@@H](O)[C@@H]1O", "note": "[polydatin, 3,4′,5-trihydroxystibene-3-β-mono-D glucoside]", "values": [{"measurement": "solubility of polydatin in the microemulsion compositions", "result": "up to 1.5%"}]}]}
